Measurements as given in patent US11235000B2, “Calcium peroxides nanoparticles as adjuvant therapy” (UNIVERSITY OF ULSTER, priority 2017, dated 2022).

Key:
[1] = tested on: human BxPC-3 pancreatic cancer cells; test: In vitro PDT of hypoxic cells, MTT cell viability; type: cell-based; details: PDT treatment alone (RB 1 μM + 532 nm LED 30 sec)
Procedure: Having determined the ability of the CaO2 NPs to improve the light induced ROS generation of Rose Bengal in a simulated hypoxic environment, the next step was to determine if this improved ROS generation would also result in increased Rose Bengal mediated PDT killing of human BxPC-3 pancreatic cancer cells.
BxPc3 cells were seeded in a 96 well plate at a density of 5×10^4 cells per well. The cells were cultured in an anaerobic cabinet (O2/CO2/N2, 0.1:5:94.9 v/v/v) for 3 hours to generate a hypoxic environment and then spiked with RB (1 μM) and incubated for a further 3 hours under anaerobic conditions. This concentration of RB is much lower than normally used in PDT cell-based studies (˜5 μM) and was chosen to enable a moderate PDT effect in the absence of CaO2 NPs so that any beneficial effect provided by the NPs could be determined (Chan et al., Tissue engineering, 13(1): 73-85, 2007). The cells were then incubated with an ethanol: PBS (50:50) solution of the NPs (50 μM) for 5 min before being exposed to light from a 532 nm emitting LED for 30 sec. The NP solution was then removed, the cells washed with fresh PBS and incubated in fresh media under normoxic conditions for a further 21 hours before cell viability was determined using a MTT assay. […]

[2] = tested on: Mia-PaCa 2 xenograft tumours; test: PDT efficacy in vivo, tumour volume; set-up: species or system SCID mice; details: PDT alone (intratumoural Rose Bengal 100 μL, 0.1 mg/mL + white light 3 min); 5 days after treatment
Procedure: All animals employed in this study were treated humanely and in accordance with licenced procedures under the UK Animals (Scientific Procedures) Act 1986. Mia-PaCa 2 xenograft tumours were established as described above. Once the tumours had reached an average volume of 254±17 mm^3 the mice were randomly separated into 4 groups (n=5). Group 1 involved untreated animals, group 2 the PDT only group, Group 3 the 1-CaO2 NPs only group and group 4 the PDT+1-CaO2 NPs group. For group 2, mice received an intratumoural injection (100 μL) of Rose Bengal (0.1 mg/mL) in a PBS solvent and the tumour was then exposed to a LED emitting white light for 3 min (0.05 J/cm^2). Group 3 received a tail vein injection (100 μL) of 1-CaO2 NPs in a PBS vehicle (2 mg/mL) while group 4 also received a tail vein injection (100 μL) of 1-CaO2 NPs in a PBS vehicle (2 mg/mL) in addition to an intratumoural injection (100 μL) of Rose Bengal (0.1 mg/mL) and light exposure as described for group 2. The tumour volume was measured daily over the course of 6 days using callipers.

O=C([O-])c1c(Cl)c(Cl)c(Cl)c(Cl)c1-c1c2cc(I)c(=O)c(I)c-2oc2c(I)c([O-])c(I)cc12.[Na+].[Na+] [Rose Bengal]
reduction in viability [1]: 10.8% | difference in tumour volume relative to untreated control animals [2]: no significant difference
